Data as given in patent publication US6864217B2, “Herbicidal compositions with substituted phenylsulfonylureas for controlling weeds in rice” (Hoechst Schering AgrEvo GmbH, priority 1998, dated 2005).
Counter-ions that a name gives are not always drawn.

What was measured:
Oryza sativa [1] = test: Table 8 greenhouse trial, treatment at the 1-2 leaf stage: rice damage; type: in vivo; conditions: 22 days after application
Description: Seeds or rhizome pieces of mono- and dicotyledonous weed plants are placed into sandy loam soil in plastic pots, covered with soil and grown in a greenhouse under good growth conditions (temperature, atmospheric humidity, water supply). Weeds which are encountered in the cultivation of rice are cultivated in pots in which the water level is up to 2 cm over the soil surface. […] The active compound combinations according to the invention, formulated as wettable powders or emulsion concentrates, and, in parallel experiments, the correspondingly formulated individual active compounds are sprayed onto the green parts of the plants at different dosages using an amount of water of 300 to 600 l/ha (converted), and, after about 3 to 4 weeks of the test plants in the greenhouse under optimum growth conditions (temperature, atmospheric humidity, water supply), the effect of the preparations is evaluated visually in comparison to untreated controls. In the case of rice or weeds which are encountered in the cultivation of rice, the active compounds are also added directly to the water for irrigation (application analogous to the so-called granules application) or sprayed onto plants and added to the water for irrigation. The experiments were designed with several, up to five, repetitions. The herbicidal compositions according to the invention also have good herbicidal post-emergence activity against a broad spectrum of economically important weed grasses and broad-leaved weeds.

Oryza sativa [2] = test: Table 23 field trial, treatment: 4-6 leaf stage: rice damage; type: in vivo; conditions: 36 days after application
Description: (§1) Field trial: Treatment: 4-6 leaf stage, evaluation 36 days after the application.

Oryza sativa [3] = test: Table 14 greenhouse trial, treatment at the 3-4 leaf stage: rice damage; type: in vivo; conditions: 21 days after application
Experimental: (§2) Seeds or rhizome pieces of mono- and dicotyledonous weed plants are placed into sandy loam soil in plastic pots, covered with soil and grown in a greenhouse under good growth conditions (temperature, atmospheric humidity, water supply). Weeds which are encountered in the cultivation of rice are cultivated in pots in which the water level is up to 2 cm over the soil surface. Three weeks after sowing, the test plants are treated at the three-leaf stage. The active compound combinations according to the invention, formulated as wettable powders or emulsion concentrates, and, in parallel experiments, the correspondingly formulated individual active compounds are sprayed onto the green parts of the plants at different dosages using an amount of water of 300 to 600 l/ha (converted), and, after about 3 to 4 weeks of the test plants in the greenhouse under optimum growth conditions (temperature, atmospheric humidity, water supply), the effect of the preparations is evaluated visually in comparison to untreated controls. In the case of rice or weeds which are encountered in the cultivation of rice, the active compounds are also added directly to the water for irrigation (application analogous to the so-called granules application) or sprayed onto plants and added to the water for irrigation. The experiments were designed with several, up to five, repetitions. The herbicidal compositions according to the invention also have good herbicidal post-emergence activity against a broad spectrum of economically important weed grasses and broad-leaved weeds.
(§3) Greenhouse trial: Treatment at the 3-4 leaf stage, evaluation 21 days after the application.

Echinochloa crusgalli [4] = test: Table 11 greenhouse trial, treatment at the 1-2 leaf stage: weed control; type: in vivo; conditions: 20 days after application
Experimental: as §2
(§4) Greenhouse trial: Treatment at the 1-2 leaf stage, evaluation 20 days after the application.

Oryza sativa [5] = test: Table 10 greenhouse trial, treatment at the 1-2 leaf stage: rice damage; type: in vivo; conditions: in vivo
Experimental: as §2, §4

Oryza sativa [6] = test: Table 4 field trial: rice damage
Experimental: (§5) The examples mentioned below were carried out in the greenhouse, and in some instances, in field trials.

Marsilea crenata = test: Table 7 field trial, treatment at the 1-2 leaf stage: weed control; type: in vivo; conditions: 2 g of ai/ha, 28 days after application
Experimental: as §5

Echinochloa crusgalli [7] = test: as above; type: in vivo; conditions: 2 g of ai/ha, 28 days after application
Experimental: as §5

[8] = system: Oryza sativa (paddy rice); test: Table 1: damage to paddy rice; type: in vivo
Experimental: as §5

Sagittaria pygmaea [9] = test: Table 22 field trial, treatment: 1-2 leaf stage: weed control; type: in vivo; conditions: 28 days after application
Description: Field trial: Treatment: 1-2 leaf stage, evaluation 28 days after the application.

Eleusine indica = test: Table 2 field trial, treatment at the 2-3 leaf stage weed grasses: weed control; type: in vivo; conditions: 28 days after application
Experimental: as §5

Cyperus serotinus [10] = test: Table 16 greenhouse trial, treatment at the 2-3 leaf stage: weed control; type: in vivo; conditions: 20 days after application
Experimental: as §2
Greenhouse trail: Treatment at the 2-3 leaf stage, evaluation 20 days after the application.

Cyperus serotinus [11] = test: Table 21 field trial, treatment at the 2 leaf stage: weed control; type: in vivo; conditions: 2.5 g of ai/ha, 28 days after application
Description: Field trial: Treatment at the 2 leaf stage, evaluation 28 days after the application.

Oryza sativa [12] = test: Table 13 greenhouse trial, treatment at the 5-6 leaf stage: rice damage; type: in vivo; conditions: 20 days after application
Experimental: as §2
Greenhouse trial: Treatment at the 5-6 leaf stage, evaluation 20 days after the application.

Oryza sativa [13] = test: Table 9 greenhouse trial, treatment at the 1-2 leaf stage: rice damage; type: in vivo; conditions: 22 days after application
Experimental: as §2
Greenhouse trial: Treatment at the 1-2 leaf stage, evaluation 22 days after the application.

Sagittaria pygmaea [14] = test: Table 14 greenhouse trial, treatment at the 3-4 leaf stage: weed control; type: in vivo; conditions: 21 days after application
Experimental: as §2, §3

Scirpus maritimus = test: Table 15 greenhouse trial, treatment at the 2-3 leaf stage: weed control; type: in vivo; conditions: 20 days after application
Experimental: as §2

Oryza sativa [15] = test: Table 12 greenhouse trial, treatment at the 1-2 leaf stage: rice damage; type: in vivo; conditions: in vivo
Experimental: as §2, §4

Oryza sativa [16] = test: Table 7 field trial, treatment at the 1-2 leaf stage: rice damage; type: in vivo; conditions: 2 g of ai/ha, 28 days after application
Experimental: as §5

Polygonum convolvulus = test: Table 25 field trial, treatment at the 3 leaf stage: weed control; type: in vivo; conditions: 33 days after application
Description: Field trial: Treatment at the 3 leaf stage, evaluation 33 days after the application.

Echinochloa crusgalli [17] = test: Table 4 field trial: weed control; type: in vivo
Experimental: as §5

Cyperus iria = test: Table 23 field trial, treatment: 4-6 leaf stage: weed control; type: in vivo; conditions: 36 days after application
Description: as §1

## COC(=O)c1ccc(I)cc1S(=O)(=O)NC(=O)Nc1nc(C)nc(OC)n1 [A1*), Sodium salt of methyl 4-iodo-2-[3-(4-methoxy-6-methyl-1,3,5-triazin-2-yl)ureidosulfonyl]benzoate]
Oryza sativa [1]; 1.5 g of ai/ha
  ORYSW % damage: 10%
Oryza sativa [1]; 3 g of ai/ha
  ORYSW % damage: 10%
Oryza sativa [2]; 0.62 g of ai/ha
  ORYSW % damage: 3%
Oryza sativa [2]; 1.25 g of ai/ha
  ORYSW % damage: 8%
Oryza sativa [2]; 2.5 g of ai/ha
  ORYSW % damage: 12%
Oryza sativa [3]; 1.5 g of ai/ha
  ORYSW % damage: 10%
Oryza sativa [3]; 3 g of ai/ha
  ORYSW % damage: 10%
Echinochloa crusgalli [4]; 1.5 g of ai/ha
  ECHCG % control: 40%
Echinochloa crusgalli [4]; 3 g of ai/ha
  ECHCG % control: 60%
Oryza sativa [5]
  ORYSW % damage: 10%
Oryza sativa [6]; 1.25 g of ai/ha
  ORYSW % damage: 0%
Oryza sativa [6]; 2.5 g of ai/ha
  ORYSW % damage: 0%
Oryza sativa [6]; 5 g of ai/ha
  ORYSW % damage: 1%
Marsilea crenata
  MASCR % control: 33%
Echinochloa crusgalli [7]
  ECHCG % control: 10%
[8]; 1.25 g of ai/ha
  ORYSW % damage: 15%
[8]; 2.5 g of ai/ha
  ORYSW % damage: 15%
Sagittaria pygmaea [9]; 2.5 g of ai/ha
  SAGPY % control: 20%
Sagittaria pygmaea [9]; 5 g of ai/ha
  SAGPY % control: 40%
Eleusine indica; 1.25 g of ai/ha
  ELEIN % control: 0%
Eleusine indica; 2.5 g of ai/ha
  ELEIN % control: 0%
Eleusine indica; 5 g of ai/ha
  ELEIN % control: 0%
Cyperus serotinus [10]; 1.25 g of ai/ha
  CYPSE % control: 10%
Cyperus serotinus [10]; 2.5 g of ai/ha
  CYPSE % control: 30%
Cyperus serotinus [10]; 5 g of ai/ha
  CYPSE % control: 50%
Cyperus serotinus [11]
  CYPSE % control: 25%
Oryza sativa [12]; 1.5 g of ai/ha
  ORYSW % damage: 10%
Oryza sativa [12]; 3 g of ai/ha
  ORYSW % damage: 10%
Oryza sativa [13]; 1.5 g of ai/ha
  ORYSW % damage: 10%
Oryza sativa [13]; 3 g of ai/ha
  ORYSW % damage: 10%
Sagittaria pygmaea [14]; 1.5 g of ai/ha
  SAGPY % control: 30%
Sagittaria pygmaea [14]; 3 g of ai/ha
  SAGPY % control: 50%
Scirpus maritimus; 1.25 g of ai/ha
  SCIMA % control: 35%
Scirpus maritimus; 2.5 g of ai/ha
  SCIMA % control: 40%
Scirpus maritimus; 5 g of ai/ha
  SCIMA % control: 45%
Oryza sativa [15]
  ORYSW % damage: 10%
Oryza sativa [16]
  ORYSW % damage: 0%
Polygonum convolvulus; 1.25 g of ai/ha
  POLCO % control: 35%
Polygonum convolvulus; 2.5 g of ai/ha
  POLCO % control: 80%
Echinochloa crusgalli [17]; 1.25 g of ai/ha
  ECHCG % control: 0%
Echinochloa crusgalli [17]; 2.5 g of ai/ha
  ECHCG % control: 0%
Echinochloa crusgalli [17]; 5 g of ai/ha
  ECHCG % control: 0%
Cyperus iria; 0.62 g of ai/ha
  CYPIR % control: 53%
Cyperus iria; 1.25 g of ai/ha
  CYPIR % control: 85%
Cyperus iria; 2.5 g of ai/ha
  CYPIR % control: 98%
